# In patent US20160129033A1, “COMBINATION OF RO5503781 AND CAPECITABINE FOR CANCER THERAPY” (HOFFMANN-LA ROCHE INC., priority 2013, published 2016):
# System: LoVo cell line
# Test: Tumor growth inhibition and survival (ILS) in mice implanted with LoVo cell line
# Type: in vivo
# Source text: The LoVo cell line was selected for implantation in mice as it is a p53 wildtype cell line that lacks MDM2 amplification or overexpression and therefore is felt to be more reflective of clinical reality of the colorectal cancer patient population of interest.
# The following treatment groups were used in the study
# Efficacy data was graphically represented as the mean tumor volume±standard error of the mean (SEM). In addition, tumor volumes of treated groups were presented as percentages of tumor volumes of the control groups (% T/C), using the formula: 100×((T-T0)/(C-C0)), where T represented mean tumor volume of a treated group on a specific day during the experiment, T0 represented mean tumor volume of the same treated group on the first day of treatment; C represented mean tumor volume of a control group on the specific day during the experiment, and C0 represented mean tumor volume of the same treated group on the first day of treatment.
# Tumor volume (in cubic millimeters) was calculated using the ellipsoid formula: (D×(d^2))/2, where “D” represents the large diameter of the tumor and “d” represents the small diameter. In some cases, tumor regression and/or percent change in tumor volume was calculated using the formula: ((T-T0)/T0)×100, where ‘T’ represents mean tumor volume of the treated group at a particular day, and ‘T0’ represents mean tumor volume of the same treated group at initiation of treatment.
# Statistical analysis was determined by the rank sum test and One Way Anova and a post-hoc Bonferroni t-test (SigmaStat, version 2.0, Jandel Scientific, San Francisco, Calif., USA). Differences between groups were considered to be significant when the probability value (p) was ≦0.05.
# For survival assessment, the percent of increased life space (ILS) was calculated as: 100×[(median survival day of treated group−median survival day of control group)/median survival day of control group]. Median survival was determined utilizing Kaplan Meier survival analysis. Survival in treated groups was statistically compared with the vehicle group and survival comparisons were done between groups using the log-rank test (Graph Pad Prism, La Jolla, Calif., USA). Differences between groups were considered significant when the probability value (p) was ≦0.05.
# [1] = Capecitabine 200 mg/kg qd × 14 po
# [2] = Capecitabine 400 mg/kg qd × 14 po
Structure (SMILES),% Increased Life Span (ILS) [1],Mean Tumor Volume [1],% Inhibition (EOS) (TGI) [1],% T/C (EOS) [1],% Increased Life Span (ILS) [2],Mean Tumor Volume [2],% Inhibition (EOS) (TGI) [2],% T/C (EOS) [2],% Increased Life Span (ILS) (Cpd. A 80 mg/kg qd × 5 po),Mean Tumor Volume (Cpd. A 80 mg/kg qd × 5 po),% Inhibition (EOS) (TGI) (Cpd. A 80 mg/kg qd × 5 po),% T/C (EOS) (Cpd. A 80 mg/kg qd × 5 po),% Increased Life Span (ILS) (Cpd. A 100 mg/kg qweekly×3 po),Mean Tumor Volume (Cpd. A 100 mg/kg qweekly×3 po),% Inhibition (EOS) (TGI) (Cpd. A 100 mg/kg qweekly×3 po),% T/C (EOS) (Cpd. A 100 mg/kg qweekly×3 po)
"CCCCCOC(=O)Nc1nc(=O)n([C@@H]2O[C@H](C)[C@@H](O)[C@H]2O)cc1F [Capecitabine, 5′-deoxy-5-fluoro-N-[(pentyloxy)-carbonyl]-cytidine]",40%,130.14 cubic millimeters,72%,28%,49%,130.66 cubic millimeters,88%,12%,–,–,–,–,–,–,–,–
"COc1cc(C(=O)O)ccc1NC(=O)[C@@H]1N[C@@H](CC(C)(C)C)[C@](C#N)(c2ccc(Cl)cc2F)[C@H]1c1cccc(Cl)c1F [Compound A, 4-{[(2R,3S,4R,5S)-4-(4-Chloro-2-fluoro-phenyl)-3-(3-chloro-2-fluoro-phenyl)-4-cyano-5-(2,2-dimethyl-propyl)-pyrrolidine-2-carbonyl]-amino}-3-methoxy-benzoic acid]",–,–,–,–,–,–,–,–,23%,130.39 cubic millimeters,62%,38%,17%,130.11 cubic millimeters,55%,45%
